Measured values: US20100119599A1 (ARCHER PHARMACEUTICALS, INC., priority 2006, published 2010)

Legend:
Aβ1-42 = experiment: Measurement of Aβ1-42 in culture medium of 7W WT APP751 CHO cells by ELISA; type: cell-based, Chinese hamster; settings: for activity at 5 µM: Cricetulus griseus, Table 1, 5 μM test compound, CHO cells stably transfected with human APP751, culture medium, ELISA, control DMSO, 0 = no detectable amount, read-out: Aβ1-42 (% of control); for Aβ1-42 (% of control): CHO cells that overexpress APP751, zero = below the detection limit of the assay
Aβ1-40 = experiment: Measurement of Aβ1-40 in culture medium of 7W WT APP751 CHO cells by ELISA; type: cell-based, Chinese hamster; settings: for activity at 5 µM: Cricetulus griseus, Table 1, 5 μM test compound, CHO cells stably transfected with human APP751, culture medium, ELISA, control DMSO, 0 = no detectable amount; for Aβ1-40 (% of control): CHO cells that overexpress APP751, zero = below the detection limit of the assay
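Note: 5 µM test compound but RI-coded compounds at 10 µM for 24 hours.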

| Compound | activity at 5 µM (Aβ1-42) | activity at 5 µM (Aβ1-40) | Aβ1-42 (% of control) (Aβ1-42) | Aβ1-40 (% of control) (Aβ1-40) |
| --- | --- | --- | --- | --- |
| N#CC1=C(SCC(=O)Nc2ccc(Br)cc2)NC2=C(C(=O)CCC2)C1c1ccccc1Cl (centres unmarked) [ST050407, N-(4-bromophenyl)-2-[4-(2-chlorophenyl)-3-cyano-5-oxo(2-1,4,6,7,8-pentahydroquinolylthio)]acetamide] | 44.3% | 56.7% |  |  |
| COc1ccc(NC(=O)CSC2=C(C#N)C(c3ccsc3)C(C(=O)Nc3ccccc3)=C(C)N2)cc1 (centres unmarked) [RI_59] |  |  | 30.6 % of control | 27.7 % of control |
| Cn1cccc1/C=c1/sc2n(c1=O)C(N)=C(C#N)C(c1cccn1C)C=2C#N (centres unmarked) [ST003361, 5-amino-7-(1-methylpyrrol-2-yl)-2-[(1-methylpyrrol-2-yl)methylene]-3-oxo-4,7-dihydro-1,3-thiazolidino[3,2-a]pyridine-6,8-dicarbonitrile] |  |  | 90.24 % of control | 43.9 % of control |
| CCCOc1ccccc1C1C(C(=O)OCCc2ccccc2)=C(C)NC2=C1C(=O)CCC2 (centres unmarked) [ST015060, 2-phenylethyl 2-methyl-5-oxo-4-(2-propoxyphenyl)-1,4,6,7,8-pentahydroquinoline-3-carboxylate] | 0% | 0% |  |  |
| CC1(C)CC(=O)C2=C(C1)N(c1ccc(Br)cc1F)C(N)=C(C#N)C2c1ccc(Cl)cc1Cl (centres unmarked) [ST052048, 2-amino-4-(2,4-dichlorophenyl)-1-(4-bromo-2-fluorophenyl)-7,7-dimethyl-5-oxo-1,4,6,7,8-pentahydroquinoline-3-carbonitrile] | 33% | 58.9% |  |  |
| CC1=C(C(=O)Nc2ccccc2)C(c2ccsc2)C(C#N)=C(SCC(=O)Nc2ccccc2)N1 (centres unmarked) [RI_6] |  |  | 65.1 % of control | 77.7 % of control |
| CCOC(=O)C1=C(C)NC2=C(C(=O)CC(c3ccc(OC)cc3)C2)C1c1cccc(Cl)c1 (centres unmarked) [ST017144, ethyl 4-(3-chlorophenyl)-7-(4-methoxyphenyl)-2-methyl-5-oxo-1,4,6,7,8-pentahydroquinoline-3-carboxylate] | 55.6% | 23.4% |  |  |
| CC1=C(C(=O)OC2CCCCC2)C(c2ccc(C)cc2)C2=C(CC(c3ccccc3)CC2=O)N1 (centres unmarked) [ST013438, cyclohexyl 2-methyl-4-(4-methylphenyl)-5-oxo-7-phenyl-1,4,6,7,8-pentahydroquinoline-3-carboxylate] | 93.5% | 31.5% |  |  |
| CCOC(=O)C1=C(C)NC2=C(C(=O)CCC2)C1c1ccc(OCc2ccc(Cl)cc2)c(OC)c1 (centres unmarked) [ST028598, ethyl 4-{4-[(4-chlorophenyl)methoxy]-3-methoxyphenyl}-2-methyl-5-oxo-1,4,6,7,8-pentahydroquinoline-3-carboxylate] | 71.6% | 27.4% |  |  |
| COc1ccc(OC)c(C2C(C(=O)OCCc3ccccc3)=C(C)NC3=C2C(=O)CCC3)c1 (centres unmarked) [ST052373, 2-phenylethyl 4-(2,5-dimethoxyphenyl)-2-methyl-5-oxo-1,4,6,7,8-pentahydroquinoline-3-carboxylate] | 37.4% | 39.4% |  |  |
| CCc1ccc(C2C(C(=O)OCc3ccc(OC)cc3)=C(C)NC3=C2C(=O)CCC3)cc1 (centres unmarked) [ST016983, (4-methoxyphenyl)methyl 4-(4-ethylphenyl)-2-methyl-5-oxo-1,4,6,7,8-pentahydroquinoline-3-carboxylate] | 72.6% | 51.6% |  |  |
| CCOc1cc(C2C(C(=O)OCC(C)C)=C(C)NC3=C2C(=O)CC(c2ccc(Cl)cc2)C3)ccc1O (centres unmarked) [ST017117, 2-methylpropyl 7-(4-chlorophenyl)-4-(3-ethoxy-4-hydroxyphenyl)-2-methyl-5-oxo-1,4,6,7,8-pentahydroquinoline-3-carboxylate] | 81.7% | 25.7% |  |  |
| COC(=O)C1=C(C)NC2=C(C(=O)CC(C)(C)C2)C1c1cccc(Cl)c1Cl (centres unmarked) [ST013151, methyl 4-(2,3-dichlorophenyl)-2,7,7-trimethyl-5-oxo-1,4,6,7,8-pentahydroquinoline-3-carboxylate] | 61.6% | 52.1% |  |  |
| CCc1cccc(NC(=O)CSC2=C(C#N)C(c3ccsc3)C(C(=O)Nc3ccccc3)=C(C)N2)c1 (centres unmarked) [RI_44] |  |  | 60.1 % of control | 93.1 % of control |
| CCc1cccc(NC(=O)CSC2=C(C#N)C(c3ccc(-c4ccccc4)s3)C(C(=O)Nc3ccccc3)=C(C)N2)c1 (centres unmarked) [RI_89] |  |  | 55.1 % of control | 63.7 % of control |
| CC1=C(C(=O)Nc2ccccc2)C(c2cccs2)C(C#N)=C(SCC(=O)NCCC(C)(C)C)N1 (centres unmarked) [RI_17] |  |  | 24.1 % of control | 18.2 % of control |
| CCN(CC)c1ccc(C2C(C(=O)OC3CCCC3)=C(C)NC3=C2C(=O)CC(C)(C)C3)cc1 (centres unmarked) [ST013083, cyclopentyl 4-[4-(diethylamino)phenyl]-2,7,7-trimethyl-5-oxo-1,4,6,7,8-pentahydroquinoline-3-carboxylate] | 91.6% | 0% |  |  |
| N#CC1=C(N)NC(SCC(N)=O)=C(C#N)C1c1ccccc1F (centres unmarked) [RI_2] |  |  | 44.4 % of control | 100.9 % of control |
| CC1=C(C(=O)OCCOc2ccccc2)C(c2ccc(Cl)cc2Cl)C2=C(CC(C)(C)CC2=O)N1 (centres unmarked) [ST015067, 2-phenoxyethyl 4-(2,4-dichlorophenyl)-2,7,7-trimethyl-5-oxo-1,4,6,7,8-pentahydroquinoline-3-carboxylate] | 43.9% | 4.89% |  |  |
| CCc1ccc(C2C(C(=O)OCc3ccccc3)=C(C)NC3=C2C(=O)CC(c2ccccc2)C3)cc1 (centres unmarked) [ST013390, phenylmethyl 4-(4-ethylphenyl)-2-methyl-5-oxo-7-phenyl-1,4,6,7,8-pentahydroquinoline-3-carboxylate] | 98.3% | 23.4% |  |  |
| COC(=O)C1=C(C)NC2=C(C(=O)CC(c3cccs3)C2)C1c1cccc(C(F)(F)F)c1 (centres unmarked) [ST052393, methyl 2-methyl-5-oxo-7-(2-thienyl)-4-[3-(trifluoromethyl)phenyl]-1,4,6,7,8-pentahydroquinoline-3-carboxylate] | 48.2% | 34.2% |  |  |
| CCOCCOC(=O)C1=C(C)NC2=C(C(=O)CCC2)C1c1ccc(OC)c(OC)c1 (centres unmarked) [ST013341, 2-ethoxyethyl 4-(3,4-dimethoxyphenyl)-2-methyl-5-oxo-1,4,6,7,8-pentahydroquinoline-3-carboxylate] | 73.9% | 73% |  |  |
| CCc1cccc(NC(=O)CSC2=C(C#N)C(c3ccc(Cl)s3)C(C(=O)Nc3ccccc3)=C(C)N2)c1 (centres unmarked) [RI_88] |  |  | 54.6 % of control | 70.1 % of control |
| CC(C)COc1cccc(/C=c2\sc3n(c2=O)C(N)=C(C#N)C(c2cccc(OCC(C)C)c2)C=3C#N)c1 (centres unmarked) [ST025023, 5-amino-7-[3-(2-methylpropoxy)phenyl]-2-{[3-(2-methylpropoxy)phenyl]methylene}-3-oxo-4,7-dihydro-1,3-thiazolidino[3,2-a]pyridine-6,8-dicarbonitrile] |  |  | 85.29 % of control | 68.13 % of control |
| CCCOC(=O)C1=C(C)NC2=C(C(=O)CCC2)C1c1ccc(Br)cc1 (centres unmarked) [ST017259, propyl 4-(4-bromophenyl)-2-methyl-5-oxo-1,4,6,7,8-pentahydroquinoline-3-carboxylate] | 87% | 65.5% |  |  |
